# Test results: publication PMC3905752 (Nature chemical biology, 2013)
# Experiments:
# Assay type in all cases: biochemical
# [1] = biological target: ubiquitin~Cdc34A thioester (Homo sapiens, UniProt P0CG48+P49427, K48R); assay: Spontaneous hydrolysis of the ubiquitin~Cdc34A^FL thioester; conditions: 100 μM CC0651
# Cdc34A^Glu133Arg [2] = biological target: Cdc34A^Glu133Arg (Homo sapiens, UniProt P49427, E133R); assay: Sic1-SCF^Cdc4 ubiquitination assay with Cdc34A^Glu133Arg mutant; conditions: Cdc34A^Glu133Arg mutant with Ub^Arg42Glu mutant
# Cdc34A^Glu133Arg [3] = biological target: T1, Cdc34A^Glu133Arg (Homo sapiens, UniProt P49427, E133R); assay: as above; conditions: Cdc34A^Glu133Arg mutant, wild type ubiquitin
# T1 sequence (P49427 1-236 E133R): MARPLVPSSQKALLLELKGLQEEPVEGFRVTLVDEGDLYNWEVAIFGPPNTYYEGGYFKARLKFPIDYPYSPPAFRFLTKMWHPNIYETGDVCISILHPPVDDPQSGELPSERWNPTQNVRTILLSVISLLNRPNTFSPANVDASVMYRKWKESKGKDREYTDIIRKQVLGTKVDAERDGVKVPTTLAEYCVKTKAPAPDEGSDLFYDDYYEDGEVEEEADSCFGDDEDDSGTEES
smiles,measurement,setting,value
"COCC(=O)N[C@@H](Cc1ccc(-c2cc(Cl)cc(Cl)c2)cc1)[C@H](O)[C@@H](O)C(=O)O [CC0651, (2R,3S,4S)-5-(3′,5′-Dichloro-[1,1′-biphenyl]-4-yl)-2,3-dihydroxy-4-(2 methoxyacetamido)pentanoic acid]",Effect on hydrolysis of the ubiquitin~Cdc34A thioester to water,[1],inhibited
same,Sensitivity of Sic1 ubiquitination to CC0651,Cdc34A^Glu133Arg [2],restored
same,Sensitivity of Sic1 ubiquitination to CC0651,Cdc34A^Glu133Arg [3],insensitivity
